Results as given in patent US9029370B2, “Substituted benzamide derivatives” (Hoffmann-La Roche Inc., priority 2011, dated 2015).
Where a name gives a salt, the structure may show the parent alone.

Key:
rat TAAR1 = rat TAAR1 (Rattus norvegicus (Rat), UniProt Q923Y9); experiment: Radioligand binding assay on rat TAAR1; conditions: rat TAAR1, HEK-293 membranes; second value of the pair (line below); read-out: Ki (μM) mouse/rat
Procedure: (§1) For the construction of expression plasmids the coding sequences of human, rat and mouse TAAR 1 were amplified from genomic DNA essentially as described by Lindemann et al.. The Expand High Fidelity PCR System (Roche Diagnostics) was used with 1.5 mM Mg^2+ and purified PCR products were cloned into pCR2.1-TOPO cloning vector (Invitrogen) following the instructions of the manufacturer. PCR products were subcloned into the pIRESneo2 vector (BD Clontech, Palo Alto, Calif.), and expression vectors were sequence verified before introduction in cell lines.
(§2) HEK293 cells (ATCC # CRL-1573) were cultured essentially as described by Lindemann et al. (2005). For the generation of stably transfected cell lines HEK293 cells were transfected with the pIRESneo2 expression plasmids containing the TAAR coding sequences (described above) with Lipofectamine 2000 (Invitrogen) according to the instructions of the manufacturer, and 24 hrs post transfection the culture medium was supplemented with 1 mg/ml G418 (Sigma, Buchs, Switzerland). After a culture period of about 10 d clones were isolated, expanded and tested for responsiveness to trace amines (all compounds purchased from Sigma) with the cAMP Biotrak Enzyme immunoassay (EIA) System (Amersham) following the non-acetylation EIA procedure provided by the manufacturer.
Radioligand Binding Assay on Rat TAAR1
(§3) Membrane Preparation and Radioligand Binding.
(§4) HEK-293 cells stably expressing rat TAAR1 were maintained at 37° C. and 5% CO2 in DMEM high glucose medium, containing fetal calf serum (10%, heat inactivated for 30 min at 56° C.), penicillin/streptomycin (1%), and 375 μg/ml geneticin (Gibco). Cells were released from culture flasks using trypsin/EDTA, harvested, washed twice with ice-cold PBS (without Ca^2+ and Mg^2+), pelleted at 1′000 rpm for 5 min at 4° C., frozen and stored at −80° C. […] The homogenate was centrifuged at 48′000×g for 30 min at 4° C. Subsequently, the supernatant was removed and discarded, and the pellet resuspended in 20 ml HEPES-NaOH (20 mM, pH 7.4) containing 0.1 mM EDTA using the Polytron (20 s at 14′000 rpm). This procedure was repeated and the final pellet resuspended in HEPES-NaOH containing 0.1 mM EDTA and homogenized using the Polytron. Typically, aliquots of 2 ml membrane portions were stored at −80° C. With each new membrane batch the dissociation constant (Kd) was determined via a saturation curve. […] Nonspecific binding was defined as the amount of ^3[H]-(S)-4-[(ethyl-phenyl-amino)-methyl]-4,5-dihydro-oxazol-2-ylamine bound in the presence of 10 μM unlabeled ligand. All compounds were tested at a broad range of concentrations (10 pM to 10 μM) in duplicates. […] The 96 deep well plates were incubated for 1 hr at 4° C. Incubations were terminated by rapid filtration through Unifilter-96 plates (Packard Instrument Company) and glass filters GF/C (Perkin Elmer) presoaked for 1 hr in polyethylenimine (0.3%) and washed 3 times with 1 ml of cold binding buffer. After addition of 45 μl of Microscint 40 (PerkinElmer) the Unifilter-96 plate was sealed and after 1 hr the ratioactivity counted using a TopCount Microplate Scintillation Counter (Packard Instrument Company).

mouse TAAR1 = mouse TAAR1 (Mus musculus (Mouse), UniProt Q923Y8); experiment: Radioligand binding assay on mouse TAAR1; conditions: mouse TAAR1, HEK-293 membranes; first value of the pair (before the slash); read-out: Ki (μM) mouse/rat
mouse TAAR1, sequence (Q923Y8 whole entry): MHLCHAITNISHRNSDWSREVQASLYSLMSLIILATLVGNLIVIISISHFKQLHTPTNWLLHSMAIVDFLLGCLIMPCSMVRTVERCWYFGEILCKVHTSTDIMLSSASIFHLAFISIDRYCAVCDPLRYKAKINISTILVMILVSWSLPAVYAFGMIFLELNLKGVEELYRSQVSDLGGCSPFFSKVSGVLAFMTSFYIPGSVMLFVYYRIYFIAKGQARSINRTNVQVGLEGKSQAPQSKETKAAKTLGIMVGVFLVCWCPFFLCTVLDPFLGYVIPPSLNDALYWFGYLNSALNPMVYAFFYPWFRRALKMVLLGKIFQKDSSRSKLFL
Procedure: as §1, §2
Radioligand Binding Assay on Mouse TAAR1
as §3
as §4, with “expressing mouse” for “expressing rat”

rat TAAR1, sequence (Q923Y9 whole entry): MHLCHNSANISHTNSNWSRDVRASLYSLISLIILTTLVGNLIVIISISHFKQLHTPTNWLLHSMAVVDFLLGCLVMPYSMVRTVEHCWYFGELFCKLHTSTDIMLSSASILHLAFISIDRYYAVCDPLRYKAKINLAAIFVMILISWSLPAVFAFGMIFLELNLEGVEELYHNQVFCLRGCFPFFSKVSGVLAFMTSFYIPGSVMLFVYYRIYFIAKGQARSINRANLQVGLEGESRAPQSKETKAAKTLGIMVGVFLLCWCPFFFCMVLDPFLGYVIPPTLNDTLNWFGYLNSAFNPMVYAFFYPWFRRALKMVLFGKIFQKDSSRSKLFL

| Structure (SMILES) | Ki (rat TAAR1) | Ki (mouse TAAR1) |
| --- | --- | --- |
| CCOc1ccc(C(=O)Nc2ccc([C@H]3CNCCO3)c(F)c2)cn1 [Example 89, (S)-6-Ethoxy-N-(3-fluoro-4-(morpholin-2-yl)phenyl)nicotinamide hydrochloride] | 0.0254 µM | 0.0024 µM |
| CCOc1ccc(C(=O)Nc2ccc([C@H]3CNCCO3)c(Cl)c2)cn1 [Example 95, (S)—N-(3-Chloro-4-(morpholin-2-yl)phenyl)-6-ethoxynicotinamide hydrochloride] | 0.035 µM | 0.0033 µM |
| COc1ccc(C#N)cc1NC(=O)Nc1ccc([C@H]2CNCCO2)cc1Br [Example 58, 1-((S)-2-Bromo-4-morpholin-2-yl-phenyl)-3-(5-cyano-2-methoxy-phenyl)-urea] | 0.0161 µM | 0.0038 µM |
| O=C(Nc1ccc([C@@H]2CNCCO2)c(F)c1)c1ccnc(C(F)(F)F)c1 [Example 83, (R)—N-(3-Fluoro-4-(morpholin-2-yl)phenyl)-2-(trifluoromethyl)isonicotinamide hydrochloride] | 0.0075 µM | 0.006 µM |
| CCc1cc(C(=O)Nc2ccc([C@H]3CNCCO3)c(F)c2)cc(C(N)=O)n1 [Example 117, (S)-6-Ethyl-N4-(3-fluoro-4-(morpholin-2-yl)phenyl)pyridine-2,4-dicarboxamide hydrochloride] | 0.045 µM | 0.0284 µM |
| CCOc1ccc(C(=O)Nc2ccc([C@@H]3CNCCO3)c(Cl)c2)cn1 [Example 92, (R)—N-(3-Chloro-4-(morpholin-2-yl)phenyl)-6-ethoxynicotinamide hydrochloride] | 0.0045 µM | 0.0048 µM |
| N#Cc1ccc(-n2cc(C(=O)Nc3ccc([C@H]4CNCCO4)cc3F)cn2)cc1 [Example 111, (S)-1-(4-Cyanophenyl)-N-(2-fluoro-4-(morpholin-2-yl)phenyl)-1H-pyrazole-4-carboxamide hydrochloride] | 0.0086 µM | 0.0074 µM |
| O=C(Nc1ccc(Cl)nc1)Nc1ccc([C@@H]2CNCCO2)cc1F [Example 8, 1-(6-Chloro-pyridin-3-yl)-3-((R)-2-fluoro-4-morpholin-2-yl-phenyl)-urea] | 0.0039 µM | 0.0026 µM |
| O=C(Nc1ccc([C@H]2CNCCO2)cc1F)c1cn(-c2ccc(OC(F)F)cc2)nn1 [Example 104, (S)-1-(4-(Difluoromethoxy)phenyl)-N-(2-fluoro-4-(morpholin-2-yl)phenyl)-1H-1,2,3-triazole-4-carboxamide] | 0.034 µM | 0.0019 µM |
| O=C(Nc1ccc([C@H]2CNCCO2)cc1Cl)c1cnn(-c2cncc(C(F)(F)F)n2)c1 [Example 126, (S)—N-(2-Chloro-4-(morpholin-2-yl)phenyl)-1-(6-(trifluoromethyl)pyrazin-2-yl)-1H-pyrazole-4-carboxamide hydrochloride] | 0.0047 µM | 0.0202 µM |
| O=C(Nc1ccc([C@@H]2CNCCO2)cc1F)c1ccn(-c2ccc(F)cc2)n1 [Example 12, 1-(4-Fluoro-phenyl)-1H-pyrazole-3-carboxylic acid ((R)-2-fluoro-4-morpholin-2-yl-phenyl)-amide] | 0.0006 µM | 0.0026 µM |
| CCOc1cc(C(=O)Nc2ccc([C@@H]3CNCCO3)c(Cl)c2)ccn1 [Example 91, (R)—N-(3-Chloro-4-(morpholin-2-yl)phenyl)-2-ethoxyisonicotinamide hydrochloride] | 0.003 µM | 0.0053 µM |
| O=C(Nc1ccc([C@@H]2CNCCO2)cc1F)c1n[nH]c2cc(F)ccc12 [Example 1, 6-Fluoro-1H-indazole-3-carboxylic acid ((R)-2-fluoro-4-morpholin-2-yl-phenyl)-amide] | 0.0051 µM | 0.001 µM |
| O=C(Nc1ccc([C@H]2CNCCO2)c(Cl)c1)c1cnn(-c2cncc(C(F)(F)F)n2)c1 [Example 128, (S)—N-(3-Chloro-4-(morpholin-2-yl)phenyl)-1-(6-(trifluoromethyl)pyrazin-2-yl)-1H-pyrazole-4-carboxamide hydrochloride] | 0.0025 µM | 0.0088 µM |
| O=C(Nc1ccc([C@@H]2CNCCO2)cc1Cl)c1ccc(Cl)nc1 [Example 35, (R)-6-Chloro-N-(2-chloro-4-(morpholin-2-yl)phenyl)nicotinamide] | 0.111 µM | 0.0082 µM |
| N#Cc1ccc(OC(F)F)c(NC(=O)Nc2ccc([C@H]3CNCCO3)cc2Cl)c1 [Example 48, (S)-1-(2-Chloro-4-(morpholin-2-yl)phenyl)-3-(5-cyano-2-(difluoromethoxy)phenyl)urea] | 0.0018 µM | 0.0022 µM |
| O=C(NCc1cccc(OC(F)F)c1)Nc1ccc([C@H]2CNCCO2)cc1F [Example 78, (S)-1-(3-(Difluoromethoxy)benzyl)-3-(2-fluoro-4-(morpholin-2-yl)phenyl)urea] | 0.0039 µM | 0.0012 µM |
| COc1cc(C(=O)Nc2ccc([C@H]3CNCCO3)cc2F)cc(Cl)n1 [Example 25, 2-Chloro-N—((S)-2-fluoro-4-morpholin-2-yl-phenyl)-6-methoxy-isonicotinamide] | 0.0127 µM | 0.0034 µM |
| N#Cc1cc(NC(=O)Nc2ccc([C@H]3CNCCO3)cc2F)ccc1F [Example 27, 1-(3-Cyano-4-fluoro-phenyl)-3-((S)-2-fluoro-4-morpholin-2-yl-phenyl)-urea] | 0.0038 µM | 0.0028 µM |
| O=C(Nc1ccc([C@H]2CNCCO2)cc1F)c1cnn(-c2cccc(OC(F)F)c2)c1 [Example 75, (S)-1-(3-(Difluoromethoxy)phenyl)-N-(2-fluoro-4-(morpholin-2-yl)phenyl)-1H-pyrazole-4-carboxamide] | 0.0011 µM | 0.0014 µM |
| N#Cc1cccc(NC(=O)Nc2ccc([C@H]3CNCCO3)cc2F)c1 [Example 4, 1-(3-Cyano-phenyl)-3-((S)-2-fluoro-4-morpholin-2-yl-phenyl)-urea] | 0.0028 µM | 0.0017 µM |
| COc1cc(C(=O)Nc2ccc([C@H]3CNCCO3)c(F)c2)cc(C#N)n1 [Example 107, (S)-2-Cyano-N-(3-fluoro-4-(morpholin-2-yl)phenyl)-6-methoxyisonicotinamide hydrochloride] | 0.0065 µM | 0.0093 µM |
| COc1ccc(C#N)cc1NC(=O)Nc1ccc([C@H]2CNCCO2)cc1F [Example 39, (S)-1-(5-Cyano-2-methoxyphenyl)-3-(2-fluoro-4-(morpholin-2-yl)phenyl)urea hydrochloride] | 0.0085 µM | 0.003 µM |
| O=C(Nc1cnc(C(F)(F)F)nc1)Nc1ccc([C@@H]2CNCCO2)cc1Br [Example 70, 1-((R)-2-Bromo-4-morpholin-2-yl-phenyl)-3-(2-trifluoromethyl-pyrimidin-5-yl)-urea] | 0.0103 µM | 0.0056 µM |
